Columns and labels:
Experiment in all cases: KINOMEscan kinase profiling
Format in all cases: binding
[1] = biological target: T1, FLT4 (Homo sapiens, UniProt P35916); conditions: read-out: %Inhibition by 10 μM SPA70
T1 construct: purchased DiscoverX (Ambit Biosciences) KINOMEscan
Procedure, shortened: (§1)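 KINOMEscan profiling followed a published protocol. Kinases whose inhibition exceeded a set cut-off were then tested in a dilution series beginning at 30 µM.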

[2] = biological target: T2, CAMK2B (Homo sapiens, UniProt Q13554); conditions: read-out: %Inhibition by 10 μM SPA70
T2 construct: purchased DiscoverX (Ambit Biosciences) KINOMEscan
Procedure, shortened: as §1

[3] = biological target: T3, LRRK2 (Homo sapiens, UniProt Q5S007); conditions: read-out: %Inhibition by 10 μM SPA70
T3 construct: purchased DiscoverX (Ambit Biosciences) KINOMEscan
T3 sequence (Q5S007 whole entry): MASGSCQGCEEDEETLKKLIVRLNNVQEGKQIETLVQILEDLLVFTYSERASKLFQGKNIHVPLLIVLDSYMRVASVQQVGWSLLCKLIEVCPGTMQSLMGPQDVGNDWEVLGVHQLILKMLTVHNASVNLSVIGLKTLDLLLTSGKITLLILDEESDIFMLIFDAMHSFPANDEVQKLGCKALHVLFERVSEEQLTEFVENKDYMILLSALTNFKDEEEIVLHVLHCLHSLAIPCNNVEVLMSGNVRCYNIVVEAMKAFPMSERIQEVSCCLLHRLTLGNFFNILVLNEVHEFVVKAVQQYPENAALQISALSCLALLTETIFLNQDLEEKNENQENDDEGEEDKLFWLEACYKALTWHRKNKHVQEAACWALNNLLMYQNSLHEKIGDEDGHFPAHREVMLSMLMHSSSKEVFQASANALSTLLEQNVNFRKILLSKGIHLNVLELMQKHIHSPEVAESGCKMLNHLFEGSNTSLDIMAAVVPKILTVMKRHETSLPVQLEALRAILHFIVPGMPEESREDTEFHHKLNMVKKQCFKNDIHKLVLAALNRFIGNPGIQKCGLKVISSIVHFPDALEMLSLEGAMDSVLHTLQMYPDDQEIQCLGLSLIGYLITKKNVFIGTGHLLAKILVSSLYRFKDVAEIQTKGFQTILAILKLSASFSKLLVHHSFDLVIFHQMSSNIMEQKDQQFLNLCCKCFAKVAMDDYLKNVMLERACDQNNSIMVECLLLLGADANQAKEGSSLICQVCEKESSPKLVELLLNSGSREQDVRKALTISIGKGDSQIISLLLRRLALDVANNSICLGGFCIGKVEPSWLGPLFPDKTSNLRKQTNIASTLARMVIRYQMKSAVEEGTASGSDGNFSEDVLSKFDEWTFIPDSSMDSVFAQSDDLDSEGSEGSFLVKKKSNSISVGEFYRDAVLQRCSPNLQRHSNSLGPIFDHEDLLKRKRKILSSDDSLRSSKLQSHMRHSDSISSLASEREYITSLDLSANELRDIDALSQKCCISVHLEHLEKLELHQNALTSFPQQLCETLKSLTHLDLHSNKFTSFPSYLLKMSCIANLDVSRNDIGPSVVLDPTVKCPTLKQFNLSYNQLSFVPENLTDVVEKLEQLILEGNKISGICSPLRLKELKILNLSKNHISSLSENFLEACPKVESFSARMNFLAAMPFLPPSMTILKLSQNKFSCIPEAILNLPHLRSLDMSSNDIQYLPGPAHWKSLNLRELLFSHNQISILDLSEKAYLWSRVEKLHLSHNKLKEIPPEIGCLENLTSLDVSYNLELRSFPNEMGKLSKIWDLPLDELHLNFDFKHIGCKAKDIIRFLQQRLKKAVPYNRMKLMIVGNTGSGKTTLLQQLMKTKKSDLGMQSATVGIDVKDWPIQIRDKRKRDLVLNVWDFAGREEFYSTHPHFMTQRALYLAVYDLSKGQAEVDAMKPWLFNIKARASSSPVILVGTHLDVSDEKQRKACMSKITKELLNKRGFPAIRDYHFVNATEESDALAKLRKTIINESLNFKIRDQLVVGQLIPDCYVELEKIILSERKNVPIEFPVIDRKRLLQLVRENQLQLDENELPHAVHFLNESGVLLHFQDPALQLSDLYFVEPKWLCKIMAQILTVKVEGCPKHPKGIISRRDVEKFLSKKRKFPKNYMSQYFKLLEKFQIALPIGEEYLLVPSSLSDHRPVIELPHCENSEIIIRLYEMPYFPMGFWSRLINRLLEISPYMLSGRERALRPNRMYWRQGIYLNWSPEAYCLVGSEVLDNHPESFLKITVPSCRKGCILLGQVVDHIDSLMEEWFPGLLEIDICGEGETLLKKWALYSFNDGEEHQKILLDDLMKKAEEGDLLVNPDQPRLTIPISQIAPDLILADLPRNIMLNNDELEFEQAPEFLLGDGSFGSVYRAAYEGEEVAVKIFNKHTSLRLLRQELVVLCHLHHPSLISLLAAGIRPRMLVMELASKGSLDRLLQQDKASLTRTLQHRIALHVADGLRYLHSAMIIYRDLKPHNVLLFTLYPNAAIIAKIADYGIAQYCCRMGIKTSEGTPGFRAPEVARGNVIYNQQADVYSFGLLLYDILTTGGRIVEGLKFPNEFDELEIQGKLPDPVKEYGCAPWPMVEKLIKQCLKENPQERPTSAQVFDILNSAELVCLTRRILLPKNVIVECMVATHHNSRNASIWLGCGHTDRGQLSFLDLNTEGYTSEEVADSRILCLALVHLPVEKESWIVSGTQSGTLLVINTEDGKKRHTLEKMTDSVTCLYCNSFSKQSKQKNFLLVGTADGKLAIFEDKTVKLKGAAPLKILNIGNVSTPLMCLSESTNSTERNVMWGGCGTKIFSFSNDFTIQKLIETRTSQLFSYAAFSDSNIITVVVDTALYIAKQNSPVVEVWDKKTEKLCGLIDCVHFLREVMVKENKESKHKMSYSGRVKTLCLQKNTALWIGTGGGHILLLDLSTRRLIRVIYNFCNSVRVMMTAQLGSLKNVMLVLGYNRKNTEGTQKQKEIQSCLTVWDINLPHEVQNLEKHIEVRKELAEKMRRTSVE
Procedure, shortened: as §1

[4] = biological target: T4, MRCKB (Homo sapiens, UniProt Q9Y5S2); conditions: read-out: %Inhibition by 10 μM SPA70
T4 construct: purchased DiscoverX (Ambit Biosciences) KINOMEscan
Procedure, shortened: as §1

[5] = biological target: T5, MAP4K4 (Homo sapiens, UniProt O95819); conditions: read-out: %Inhibition by 10 μM SPA70
T5 construct: purchased DiscoverX (Ambit Biosciences) KINOMEscan
Procedure, shortened: as §1

[6] = biological target: T6, BMPR1B (Homo sapiens, UniProt O00238); conditions: read-out: %Inhibition by 10 μM SPA70
T6 construct: purchased DiscoverX (Ambit Biosciences) KINOMEscan
Procedure, shortened: as §1

[7] = biological target: T7, MST3 (Homo sapiens, UniProt Q9Y6E0)
T7 construct: purchased DiscoverX (Ambit Biosciences) KINOMEscan
Procedure, shortened: as §1

[8] = biological target: T8, MAP3K1 (Homo sapiens, UniProt Q13233); conditions: read-out: %Inhibition by 10 μM SPA70
T8 construct: purchased DiscoverX (Ambit Biosciences) KINOMEscan
Procedure, shortened: as §1

[9] = biological target: T9, SRC (Homo sapiens, UniProt P12931); conditions: read-out: %Inhibition by 10 μM SPA70
T9 construct: purchased DiscoverX (Ambit Biosciences) KINOMEscan
Procedure, shortened: as §1

[10] = biological target: T10, TXK (Homo sapiens, UniProt P42681); conditions: read-out: %Inhibition by 10 μM SPA70
T10 construct: purchased DiscoverX (Ambit Biosciences) KINOMEscan
Procedure, shortened: as §1

[11] = biological target: T11, MYLK4 (Homo sapiens, UniProt Q86YV6); conditions: read-out: %Inhibition by 10 μM SPA70
T11 construct: purchased DiscoverX (Ambit Biosciences) KINOMEscan
T11 sequence (Q86YV6 whole entry): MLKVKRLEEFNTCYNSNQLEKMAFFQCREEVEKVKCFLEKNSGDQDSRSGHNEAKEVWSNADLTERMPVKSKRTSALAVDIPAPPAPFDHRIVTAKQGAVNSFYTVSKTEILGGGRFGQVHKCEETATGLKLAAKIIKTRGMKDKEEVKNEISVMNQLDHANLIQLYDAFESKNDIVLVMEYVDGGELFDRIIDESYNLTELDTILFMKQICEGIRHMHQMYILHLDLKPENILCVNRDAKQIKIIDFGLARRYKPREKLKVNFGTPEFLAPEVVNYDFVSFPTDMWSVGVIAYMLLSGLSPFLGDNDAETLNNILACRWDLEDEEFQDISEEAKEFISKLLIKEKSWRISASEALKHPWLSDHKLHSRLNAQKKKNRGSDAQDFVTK
Procedure, shortened: as §1

[12] = biological target: T12, YES (Homo sapiens, UniProt P07947); conditions: read-out: %Inhibition by 10 μM SPA70
T12 construct: purchased DiscoverX (Ambit Biosciences) KINOMEscan
Procedure, shortened: as §1

[13] = biological target: T13, CAMK1 (Homo sapiens, UniProt Q14012); conditions: read-out: %Inhibition by 10 μM SPA70
T13 construct: purchased DiscoverX (Ambit Biosciences) KINOMEscan
Procedure, shortened: as §1

[14] = biological target: T14, ULK3 (Homo sapiens, UniProt Q6PHR2)
T14 construct: purchased DiscoverX (Ambit Biosciences) KINOMEscan
T14 sequence (Q6PHR2 whole entry): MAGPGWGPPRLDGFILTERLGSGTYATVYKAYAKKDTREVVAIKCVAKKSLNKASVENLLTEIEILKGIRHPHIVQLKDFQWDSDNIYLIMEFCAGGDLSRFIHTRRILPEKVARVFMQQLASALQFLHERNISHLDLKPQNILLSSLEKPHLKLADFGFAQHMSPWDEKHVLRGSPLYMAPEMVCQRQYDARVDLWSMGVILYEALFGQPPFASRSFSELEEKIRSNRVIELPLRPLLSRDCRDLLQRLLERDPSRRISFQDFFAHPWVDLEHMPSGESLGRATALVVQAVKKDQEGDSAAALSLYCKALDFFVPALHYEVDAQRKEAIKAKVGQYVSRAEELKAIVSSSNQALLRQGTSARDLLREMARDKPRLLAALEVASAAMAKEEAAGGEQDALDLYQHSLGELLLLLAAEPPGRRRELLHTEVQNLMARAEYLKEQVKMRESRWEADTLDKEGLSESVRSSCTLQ
Procedure, shortened: as §1

[15] = biological target: T15, EPHB3 (Homo sapiens, UniProt P54753); conditions: read-out: %Inhibition by 10 μM SPA70
T15 construct: purchased DiscoverX (Ambit Biosciences) KINOMEscan
Procedure, shortened: as §1

[16] = biological target: T16, CLK3 (Homo sapiens, UniProt P49761); conditions: read-out: %Inhibition by 10 μM SPA70
T16 construct: purchased DiscoverX (Ambit Biosciences) KINOMEscan
Procedure, shortened: as §1

[17] = biological target: T17, ERK4 (Homo sapiens, UniProt P31152); conditions: read-out: %Inhibition by 10 μM SPA70
T17 construct: purchased DiscoverX (Ambit Biosciences) KINOMEscan
Procedure, shortened: as §1

[18] = biological target: T18, PIK3CG (Homo sapiens, UniProt P48736); conditions: read-out: %Inhibition by 10 μM SPA70
T18 construct: purchased DiscoverX (Ambit Biosciences) KINOMEscan
Procedure, shortened: as §1

[19] = biological target: T19, STK33 (Homo sapiens, UniProt Q9BYT3); conditions: read-out: %Inhibition by 10 μM SPA70
T19 construct: purchased DiscoverX (Ambit Biosciences) KINOMEscan
Procedure, shortened: as §1

[20] = biological target: T20, SIK2 (Homo sapiens, UniProt Q9H0K1); conditions: read-out: %Inhibition by 10 μM SPA70
T20 construct: purchased DiscoverX (Ambit Biosciences) KINOMEscan
Procedure, shortened: as §1

[21] = biological target: T21, JAK1(JH2domain-pseudokinase) (Homo sapiens, UniProt P23458)
T21 construct: JAK1(JH2domain-pseudokinase); purchased DiscoverX (Ambit Biosciences) KINOMEscan
Procedure, shortened: as §1

[22] = biological target: T22, RAF1 (Homo sapiens, UniProt P04049); conditions: read-out: %Inhibition by 10 μM SPA70
T22 construct: purchased DiscoverX (Ambit Biosciences) KINOMEscan
Procedure, shortened: as §1

[23] = biological target: T23, STK16 (Homo sapiens, UniProt O75716); conditions: read-out: %Inhibition by 10 μM SPA70
T23 construct: purchased DiscoverX (Ambit Biosciences) KINOMEscan
Procedure, shortened: as §1

[24] = biological target: T24, ASK1 (Homo sapiens, UniProt Q99683); conditions: read-out: %Inhibition by 10 μM SPA70
T24 construct: purchased DiscoverX (Ambit Biosciences) KINOMEscan
Procedure, shortened: as §1

[25] = biological target: T25, CDK7 (Homo sapiens, UniProt P50613); conditions: read-out: %Inhibition by 10 μM SPA70
T25 construct: purchased DiscoverX (Ambit Biosciences) KINOMEscan
Procedure, shortened: as §1

[26] = biological target: T26, WEE1 (Homo sapiens, UniProt P30291); conditions: read-out: %Inhibition by 10 μM SPA70
T26 construct: purchased DiscoverX (Ambit Biosciences) KINOMEscan
T26 sequence (P30291 whole entry): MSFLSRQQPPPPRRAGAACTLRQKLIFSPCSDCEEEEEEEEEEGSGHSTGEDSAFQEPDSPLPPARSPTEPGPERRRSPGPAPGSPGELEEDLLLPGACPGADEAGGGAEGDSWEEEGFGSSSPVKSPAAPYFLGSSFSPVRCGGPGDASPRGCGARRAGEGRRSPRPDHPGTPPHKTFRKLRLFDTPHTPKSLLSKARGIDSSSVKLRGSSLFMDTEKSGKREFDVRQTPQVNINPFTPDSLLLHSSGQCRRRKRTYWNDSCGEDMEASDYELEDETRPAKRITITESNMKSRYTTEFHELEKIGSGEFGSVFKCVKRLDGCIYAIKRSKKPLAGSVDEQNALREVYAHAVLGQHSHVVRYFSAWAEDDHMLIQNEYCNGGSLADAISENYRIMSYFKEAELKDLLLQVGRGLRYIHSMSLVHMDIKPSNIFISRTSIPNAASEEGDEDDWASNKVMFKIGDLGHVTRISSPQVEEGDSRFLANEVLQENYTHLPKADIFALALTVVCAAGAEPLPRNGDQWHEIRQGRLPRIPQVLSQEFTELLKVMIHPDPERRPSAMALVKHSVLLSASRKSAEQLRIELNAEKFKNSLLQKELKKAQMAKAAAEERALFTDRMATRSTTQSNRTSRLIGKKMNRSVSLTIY
Procedure, shortened: as §1

[27] = biological target: T27, BMX (Homo sapiens, UniProt P51813); conditions: read-out: %Inhibition by 10 μM SPA70
T27 construct: purchased DiscoverX (Ambit Biosciences) KINOMEscan
Procedure, shortened: as §1

[28] = biological target: T28, PIM2 (Homo sapiens, UniProt Q9P1W9); conditions: read-out: %Inhibition by 10 μM SPA70
T28 construct: purchased DiscoverX (Ambit Biosciences) KINOMEscan
T28 sequence (Q9P1W9 whole entry): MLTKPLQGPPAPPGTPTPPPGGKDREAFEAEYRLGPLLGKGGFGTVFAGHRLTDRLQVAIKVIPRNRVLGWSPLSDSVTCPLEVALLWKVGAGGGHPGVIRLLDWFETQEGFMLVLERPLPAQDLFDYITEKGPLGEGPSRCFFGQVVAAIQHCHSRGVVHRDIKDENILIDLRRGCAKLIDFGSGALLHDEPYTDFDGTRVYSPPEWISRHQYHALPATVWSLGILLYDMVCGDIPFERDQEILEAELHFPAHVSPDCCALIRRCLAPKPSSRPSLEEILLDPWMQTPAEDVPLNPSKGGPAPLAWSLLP
Procedure, shortened: as §1

[29] = biological target: T29, RIOK3 (Homo sapiens, UniProt O14730); conditions: read-out: %Inhibition by 10 μM SPA70
T29 construct: purchased DiscoverX (Ambit Biosciences) KINOMEscan
Procedure, shortened: as §1

[30] = biological target: T30, EPHA5 (Homo sapiens, UniProt P54756)
T30 construct: purchased DiscoverX (Ambit Biosciences) KINOMEscan
Procedure, shortened: as §1

[31] = biological target: T31, RIPK2 (Homo sapiens, UniProt O43353); conditions: read-out: %Inhibition by 10 μM SPA70
T31 construct: purchased DiscoverX (Ambit Biosciences) KINOMEscan
T31 sequence (O43353 whole entry): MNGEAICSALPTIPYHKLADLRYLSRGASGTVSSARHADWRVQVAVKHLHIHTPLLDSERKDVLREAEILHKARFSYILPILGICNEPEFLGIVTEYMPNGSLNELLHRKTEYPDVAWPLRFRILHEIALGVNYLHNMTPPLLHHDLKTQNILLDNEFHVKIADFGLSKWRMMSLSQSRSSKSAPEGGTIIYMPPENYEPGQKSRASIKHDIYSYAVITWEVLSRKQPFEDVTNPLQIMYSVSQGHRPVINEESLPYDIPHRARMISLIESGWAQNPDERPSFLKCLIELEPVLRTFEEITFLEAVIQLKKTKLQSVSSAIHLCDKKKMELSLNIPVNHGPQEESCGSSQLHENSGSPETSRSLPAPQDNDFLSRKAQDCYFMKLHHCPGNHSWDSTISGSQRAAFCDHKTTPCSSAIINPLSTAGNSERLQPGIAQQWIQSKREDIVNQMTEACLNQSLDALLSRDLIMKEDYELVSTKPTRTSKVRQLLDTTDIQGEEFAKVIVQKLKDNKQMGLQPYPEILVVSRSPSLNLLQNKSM
Procedure, shortened: as §1

[32] = biological target: T32, PIP5K1C (Homo sapiens, UniProt O60331)
T32 construct: purchased DiscoverX (Ambit Biosciences) KINOMEscan
Procedure, shortened: as §1

[33] = biological target: T33, JAK2(JH1domain-catalytic) (Homo sapiens, UniProt O60674)
T33 construct: JAK2(JH1domain-catalytic); purchased DiscoverX (Ambit Biosciences) KINOMEscan
Procedure, shortened: as §1

[34] = biological target: T34, ABL2 (Homo sapiens, UniProt P42684); conditions: read-out: %Inhibition by 10 μM SPA70
T34 construct: purchased DiscoverX (Ambit Biosciences) KINOMEscan
Procedure, shortened: as §1

[35] = biological target: T35, RPS6KA5(Kin.Dom.2-C-terminal) (Homo sapiens, UniProt O75582); conditions: read-out: %Inhibition by 10 μM SPA70
T35 construct: RPS6KA5(Kin.Dom.2-C-terminal); purchased DiscoverX (Ambit Biosciences) KINOMEscan
Procedure, shortened: as §1

[36] = biological target: T36, EPHA3 (Homo sapiens, UniProt P29320); conditions: read-out: %Inhibition by 10 μM SPA70
T36 construct: purchased DiscoverX (Ambit Biosciences) KINOMEscan
Procedure, shortened: as §1

[37] = biological target: T37, CLK2 (Homo sapiens, UniProt P49760); conditions: read-out: %Inhibition by 10 μM SPA70
T37 construct: purchased DiscoverX (Ambit Biosciences) KINOMEscan
Procedure, shortened: as §1

[38] = biological target: T38, CDK11 (Homo sapiens, UniProt Q9BWU1)
T38 construct: purchased DiscoverX (Ambit Biosciences) KINOMEscan
Procedure, shortened: as §1

[39] = biological target: T39, PDGFRB (Homo sapiens, UniProt P09619); conditions: read-out: %Inhibition by 10 μM SPA70
T39 construct: purchased DiscoverX (Ambit Biosciences) KINOMEscan
Procedure, shortened: as §1

[40] = biological target: T40, RSK2(Kin.Dom.1-N-terminal) (Homo sapiens, UniProt P51812); conditions: read-out: %Inhibition by 10 μM SPA70
T40 construct: RSK2(Kin.Dom.1-N-terminal); purchased DiscoverX (Ambit Biosciences) KINOMEscan
Procedure, shortened: as §1

COc1ccc(OC)c(-n2nnc(S(=O)(=O)c3ccc(C(C)(C)C)cc3)c2C)c1 [SPA70]
inhibition at 10 µM [1]: 2% | inhibition at 10 µM [2]: 13% | inhibition at 10 µM [3]: 0% | inhibition at 10 µM [4]: 0% | inhibition at 10 µM [5]: 0% | inhibition at 10 µM [6]: 0% | %Inhibition by 10 μM SPA70 [7]: 0% | inhibition at 10 µM [8]: 0% | inhibition at 10 µM [9]: 0% | inhibition at 10 µM [10]: 0% | inhibition at 10 µM [11]: 0% | inhibition at 10 µM [12]: 2% | inhibition at 10 µM [13]: 0% | %Inhibition by 10 μM SPA70 [14]: 2% | inhibition at 10 µM [15]: 0% | inhibition at 10 µM [16]: 0% | inhibition at 10 µM [17]: 0% | inhibition at 10 µM [18]: 9% | inhibition at 10 µM [19]: 0% | inhibition at 10 µM [20]: 0% | %Inhibition by 10 μM SPA70 [21]: 0% | inhibition at 10 µM [22]: 19% | inhibition at 10 µM [23]: 0% | inhibition at 10 µM [24]: 4% | inhibition at 10 µM [25]: 19% | inhibition at 10 µM [26]: 0% | inhibition at 10 µM [27]: 0% | inhibition at 10 µM [28]: 0% | inhibition at 10 µM [29]: 24% | %Inhibition by 10 μM SPA70 [30]: 0% | inhibition at 10 µM [31]: 0% | %Inhibition by 10 μM SPA70 [32]: 0% | %Inhibition by 10 μM SPA70 [33]: 33% | inhibition at 10 µM [34]: 0% | inhibition at 10 µM [35]: 37% | inhibition at 10 µM [36]: 26% | inhibition at 10 µM [37]: 24% | %Inhibition by 10 μM SPA70 [38]: 0% | inhibition at 10 µM [39]: 46% | inhibition at 10 µM [40]: 11%

Reference: paper PMC5622171 (Nature Communications, 2017)
